# Assays:
# Cyclooxygenase COX-1 = target: T1, Cyclooxygenase COX-1 (Homo sapiens, UniProt P23219); assay: SafetyScreen44 116030; type: biochemical; conditions: 10 μM; Arachidonic acid; recombinant
# T1 construct: Eurofins-Panlabs (contract screen) 116030
# Description: (§1) A broad screen of 44 molecular targets (SafetyScreen44, Eurofins-Panlabs) for Ariadne were performed, which includes G protein-coupled receptors, steroid nuclear receptors, ion channels, neurotransmitter transporters, and metabolic and signaling enzymes. Only two molecular targets, 5-HT2A and 5-HT2B receptors, emerged above the positive hit threshold, defined as 50% displacement of standard radioligands by 10 uM concentration of Ariadne (FIG. 1b, and Table 1).
# (§2) For species, “H”=human, “R”=rat. Test compound screened at all targets at concentration of 10 μM.
# Phosphodiesterase PDE4D2 = target: T2, Phosphodiesterase PDE4D2 (Homo sapiens, UniProt Q08499); assay: SafetyScreen44 154420; type: biochemical; conditions: 10 μM; FAM-cAMP; recombinant
# T2 construct: Eurofins-Panlabs (contract screen) 154420
# Description: as §1, §2
# [1] = tested on: Calcium Channel L-Type, Dihydropyridine; assay: SafetyScreen44 214600; type: binding, rat; conditions: 10 μM; [3H]Nitrendipine; cerebral cortex
# Description: as §1, §2
# Cannabinoid CB1 = target: T3, Cannabinoid CB1 (Homo sapiens, UniProt P21554); assay: SafetyScreen44 217050; type: binding; conditions: 10 μM; [3H]SR141716A; recombinant
# T3 construct: Eurofins-Panlabs (contract screen) 217050
# Description: as §1, §2
# [2] = target: T4, Cholecystokinin CCK1 (CCKA) (Homo sapiens, UniProt P32238); assay: SafetyScreen44 218030; type: binding; conditions: 10 μM; [125I]CCK-8; recombinant
# T4 construct: Eurofins-Panlabs (contract screen) 218030
# Description: as §1, §2
# Dopamine D1 = target: T5, Dopamine D1 (Homo sapiens, UniProt P21728); assay: SafetyScreen44 219500; type: binding; conditions: 10 μM; [3H]SCH-23390; recombinant
# T5 construct: Eurofins-Panlabs (contract screen) 219500
# Description: as §1, §2
# Endothelin ETA = target: T6, Endothelin ETA (Homo sapiens, UniProt P25101); assay: SafetyScreen44 224010; type: binding; conditions: 10 μM; [125I]Endothelin-1; recombinant
# T6 construct: Eurofins-Panlabs (contract screen) 224010
# Description: as §1, §2
# [3] = tested on: GABAA, Flunitrazepam, Central; assay: SafetyScreen44 226600; type: binding, rat; conditions: 10 μM; [3H]Flunitrazepam; brain (minus cerebellum)
# Description: as §1, §2
# Glucocorticoid = target: T7, Glucocorticoid (Homo sapiens, UniProt P04150); assay: SafetyScreen44 232030; type: binding; conditions: 10 μM; [3H]Dexamethasone; recombinant
# T7 construct: Eurofins-Panlabs (contract screen) 232030
# Description: as §1, §2
# Histamine H1 = target: T8, Histamine H1 (Homo sapiens, UniProt P35367); assay: SafetyScreen44 239610; type: binding; conditions: 10 μM; [3H]Pyrilamine; recombinant
# T8 construct: purchased Eurofins-Panlabs (contract screen SafetyScreen44) assay ID 239610
# Description: as §1, §2
# Muscarinic M2 = target: T9, Muscarinic M2 (Homo sapiens, UniProt P08172); assay: SafetyScreen44 252710; type: binding; conditions: 10 μM; [3H]N-Methylscopolamine; recombinant
# T9 construct: purchased Eurofins-Panlabs (contract screen SafetyScreen44) assay ID 252710
# Description: as §1, §2
# Opiate δ1 (OP1, DOP) = target: T10, Opiate δ1 (OP1, DOP) (Homo sapiens, UniProt P41143); assay: SafetyScreen44 260130; type: binding; conditions: 10 μM; [3H]Naltrindole; recombinant
# T10 construct: purchased Eurofins-Panlabs (contract screen SafetyScreen44) assay ID 260130
# Description: as §1, §2
# [4] = target: T11, Serotonin (5-Hydroxytryptamine) 5-HT1B (Homo sapiens, UniProt P28222); assay: SafetyScreen44 271230; type: binding; conditions: 10 μM; [3H]GR125743; recombinant
# T11 construct: purchased Eurofins-Panlabs (contract screen SafetyScreen44) assay ID 271230
# Description: as §1, §2
# [5] = target: T12, Serotonin (5-Hydroxytryptamine) 5-HT2A (Homo sapiens, UniProt P28223); assay: SafetyScreen44 271650; type: binding; conditions: 10 μM, [3H]Ketanserin, recombinant
# T12 construct: purchased Eurofins-Panlabs (contract screen SafetyScreen44) assay ID 271650
# Description: as §1, §2
# [6] = target: T13, Serotonin (5-Hydroxytryptamine) 5-HT2B (Homo sapiens, UniProt P41595); assay: SafetyScreen44 271700; type: binding; conditions: 10 μM, [3H]Lysergic acid diethylamide (LSD), recombinant
# T13 construct: purchased Eurofins-Panlabs (contract screen SafetyScreen44) assay ID 271700
# Description: as §1, §2
# Vasopressin V1A = target: T14, Vasopressin V1A (Homo sapiens, UniProt P37288); assay: SafetyScreen44 287530; type: binding; conditions: 10 μM; [125I]Phenylacetyl Tyr(Me)PheGlnAsnArgProArgTyr; recombinant
# T14 construct: purchased Eurofins-Panlabs (contract screen SafetyScreen44) assay ID 287530
# Description: as §1, §2
# hDAT = hDAT (Homo sapiens, UniProt Q01959); assay: DAT fluorescence uptake inhibition; type: cell-based
# cats = conditions: in comparison to (R)-DOM; cited from earlier work
# rat smooth muscle = conditions: compared to serotonin and (R)-DOM; cited from earlier work
# C57BL/6J mice = assay: Open field locomotion in mice; type: in vivo, mouse
# mice = assay: Novelty suppressed feeding (NSF); type: in vivo, mouse; conditions: 7 days post-drug administration; 10 mg/kg
# Description: FIGS. 7A-D Effect of Ariadne in behavioral conflict paradigms. (a) Survival plot of effect of (R)-Ariadne (10 mg/kg) on latency to feed in the novelty suppressed feeding (NSF) test 7 days post a single drug administration. (b) Effect of 6 mg/kg and 10 mg/kg (R)-Ariadne on latency to feed in the novelty suppressed feeding (NSF) test 7 days post a single drug administration. (c) Effect of (R)-Ariadne and (±)-DOPR on the time spent in the open vs closed arms and (d) corresponding arm entries 30 minutes and 4 hours post a single subcutaneous injection.
# [7] = tested on: auxilin knockout (KO) mice; assay: Open field test in auxilin KO mouse model of Parkinson's Disease; type: in vivo; conditions: Aux-KO mice; 10 mg/kg intraperitoneal; confounded by learning effects
# patients = conditions: cited from earlier work
# T13 sequence (P41595 whole entry): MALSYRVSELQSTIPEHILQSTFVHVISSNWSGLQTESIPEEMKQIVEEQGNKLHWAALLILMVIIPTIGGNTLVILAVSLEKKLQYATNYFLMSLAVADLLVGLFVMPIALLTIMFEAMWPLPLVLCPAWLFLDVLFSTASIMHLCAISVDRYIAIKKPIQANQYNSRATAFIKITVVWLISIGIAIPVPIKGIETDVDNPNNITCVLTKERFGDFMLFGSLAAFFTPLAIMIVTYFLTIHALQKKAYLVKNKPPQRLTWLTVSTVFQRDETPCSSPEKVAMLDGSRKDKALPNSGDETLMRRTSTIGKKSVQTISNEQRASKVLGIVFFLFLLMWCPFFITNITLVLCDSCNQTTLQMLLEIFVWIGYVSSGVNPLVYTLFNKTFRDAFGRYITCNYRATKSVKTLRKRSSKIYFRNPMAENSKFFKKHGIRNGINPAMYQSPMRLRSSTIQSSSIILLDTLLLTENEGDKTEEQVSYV
# T12 sequence (P28223 whole entry): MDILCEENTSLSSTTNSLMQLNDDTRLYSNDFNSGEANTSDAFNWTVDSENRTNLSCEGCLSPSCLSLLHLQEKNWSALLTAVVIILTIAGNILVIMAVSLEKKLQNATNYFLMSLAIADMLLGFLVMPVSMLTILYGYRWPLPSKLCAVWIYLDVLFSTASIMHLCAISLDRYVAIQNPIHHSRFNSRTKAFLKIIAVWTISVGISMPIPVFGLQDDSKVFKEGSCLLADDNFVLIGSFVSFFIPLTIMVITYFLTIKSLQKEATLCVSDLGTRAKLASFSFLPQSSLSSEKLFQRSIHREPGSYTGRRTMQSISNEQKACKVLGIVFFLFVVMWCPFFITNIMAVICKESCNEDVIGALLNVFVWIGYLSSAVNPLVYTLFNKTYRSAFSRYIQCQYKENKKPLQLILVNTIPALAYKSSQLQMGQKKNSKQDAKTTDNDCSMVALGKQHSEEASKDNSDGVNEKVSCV
# T6 sequence (P25101 21-427): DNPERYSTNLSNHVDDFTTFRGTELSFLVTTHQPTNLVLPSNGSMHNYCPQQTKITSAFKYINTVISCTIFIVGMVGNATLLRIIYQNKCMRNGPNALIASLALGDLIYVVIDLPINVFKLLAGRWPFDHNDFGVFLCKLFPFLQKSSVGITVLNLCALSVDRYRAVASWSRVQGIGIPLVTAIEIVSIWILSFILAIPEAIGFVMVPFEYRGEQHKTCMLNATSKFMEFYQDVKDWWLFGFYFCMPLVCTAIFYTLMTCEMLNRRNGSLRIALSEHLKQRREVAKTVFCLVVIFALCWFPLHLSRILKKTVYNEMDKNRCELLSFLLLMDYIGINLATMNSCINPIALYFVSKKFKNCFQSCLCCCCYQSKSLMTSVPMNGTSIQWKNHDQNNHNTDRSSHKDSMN
# T11 sequence (P28222 whole entry): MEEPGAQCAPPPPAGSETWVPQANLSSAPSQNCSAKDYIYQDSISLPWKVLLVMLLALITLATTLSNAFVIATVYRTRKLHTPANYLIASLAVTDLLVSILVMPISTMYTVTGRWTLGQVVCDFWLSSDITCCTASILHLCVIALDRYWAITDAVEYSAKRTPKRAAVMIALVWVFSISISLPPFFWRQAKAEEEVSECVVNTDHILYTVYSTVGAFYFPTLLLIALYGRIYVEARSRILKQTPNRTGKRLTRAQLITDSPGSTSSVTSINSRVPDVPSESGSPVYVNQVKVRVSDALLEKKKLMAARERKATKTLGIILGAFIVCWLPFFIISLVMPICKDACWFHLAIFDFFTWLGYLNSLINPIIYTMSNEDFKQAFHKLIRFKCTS
# T10 sequence (P41143 whole entry): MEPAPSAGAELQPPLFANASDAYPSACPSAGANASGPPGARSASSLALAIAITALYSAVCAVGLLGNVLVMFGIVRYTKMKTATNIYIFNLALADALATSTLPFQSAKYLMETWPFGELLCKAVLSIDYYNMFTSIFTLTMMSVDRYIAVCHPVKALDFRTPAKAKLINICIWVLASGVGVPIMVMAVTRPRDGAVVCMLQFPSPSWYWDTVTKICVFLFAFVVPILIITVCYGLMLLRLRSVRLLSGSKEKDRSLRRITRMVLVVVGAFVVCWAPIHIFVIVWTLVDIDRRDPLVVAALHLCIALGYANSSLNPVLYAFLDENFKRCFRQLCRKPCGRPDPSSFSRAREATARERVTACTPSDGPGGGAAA
# T7 sequence (P04150 whole entry): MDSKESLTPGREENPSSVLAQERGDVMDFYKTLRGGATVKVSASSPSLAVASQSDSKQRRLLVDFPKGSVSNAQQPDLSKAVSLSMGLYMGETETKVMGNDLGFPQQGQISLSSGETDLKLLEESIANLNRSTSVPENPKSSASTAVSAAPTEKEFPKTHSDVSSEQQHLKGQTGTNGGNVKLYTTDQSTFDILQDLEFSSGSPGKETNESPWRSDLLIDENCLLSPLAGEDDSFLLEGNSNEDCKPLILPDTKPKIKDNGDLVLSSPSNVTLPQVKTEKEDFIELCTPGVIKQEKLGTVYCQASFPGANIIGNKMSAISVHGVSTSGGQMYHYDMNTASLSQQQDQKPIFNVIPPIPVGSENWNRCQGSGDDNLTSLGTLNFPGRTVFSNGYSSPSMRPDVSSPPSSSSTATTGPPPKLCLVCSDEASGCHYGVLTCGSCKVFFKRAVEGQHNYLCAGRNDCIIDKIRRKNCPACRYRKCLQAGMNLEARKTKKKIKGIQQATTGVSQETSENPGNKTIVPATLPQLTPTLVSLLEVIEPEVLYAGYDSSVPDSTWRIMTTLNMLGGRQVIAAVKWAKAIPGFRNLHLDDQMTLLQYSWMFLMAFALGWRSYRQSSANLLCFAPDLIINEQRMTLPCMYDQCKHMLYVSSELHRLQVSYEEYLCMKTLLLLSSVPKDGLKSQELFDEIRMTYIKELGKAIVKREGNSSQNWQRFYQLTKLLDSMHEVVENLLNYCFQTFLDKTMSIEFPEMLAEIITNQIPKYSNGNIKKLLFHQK
# T3 sequence (P21554 whole entry): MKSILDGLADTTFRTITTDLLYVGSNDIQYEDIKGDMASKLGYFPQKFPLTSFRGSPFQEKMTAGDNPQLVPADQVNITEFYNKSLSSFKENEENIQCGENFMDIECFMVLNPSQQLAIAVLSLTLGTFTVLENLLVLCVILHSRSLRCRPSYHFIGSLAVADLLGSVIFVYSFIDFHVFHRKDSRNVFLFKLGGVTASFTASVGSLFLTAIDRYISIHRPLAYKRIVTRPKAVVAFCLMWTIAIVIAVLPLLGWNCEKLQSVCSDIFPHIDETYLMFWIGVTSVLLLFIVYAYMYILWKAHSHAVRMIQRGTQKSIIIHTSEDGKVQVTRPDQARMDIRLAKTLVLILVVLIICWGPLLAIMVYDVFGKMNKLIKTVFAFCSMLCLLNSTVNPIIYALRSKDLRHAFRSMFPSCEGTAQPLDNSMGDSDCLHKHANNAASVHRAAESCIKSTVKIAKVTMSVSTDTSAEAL
# T14 sequence (P37288 whole entry): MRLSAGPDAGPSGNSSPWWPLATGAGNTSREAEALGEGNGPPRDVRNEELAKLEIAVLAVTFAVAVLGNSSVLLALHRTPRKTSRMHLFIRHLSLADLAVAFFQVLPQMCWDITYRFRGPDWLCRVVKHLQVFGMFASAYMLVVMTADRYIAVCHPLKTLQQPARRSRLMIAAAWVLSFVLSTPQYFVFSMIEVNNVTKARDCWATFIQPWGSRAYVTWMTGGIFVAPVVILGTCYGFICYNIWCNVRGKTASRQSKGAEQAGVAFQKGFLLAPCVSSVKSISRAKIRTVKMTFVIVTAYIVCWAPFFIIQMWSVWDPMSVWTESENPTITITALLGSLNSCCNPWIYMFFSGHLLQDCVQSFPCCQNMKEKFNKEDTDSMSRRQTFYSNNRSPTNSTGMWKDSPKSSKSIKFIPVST
# T1 sequence (P23219 24-599): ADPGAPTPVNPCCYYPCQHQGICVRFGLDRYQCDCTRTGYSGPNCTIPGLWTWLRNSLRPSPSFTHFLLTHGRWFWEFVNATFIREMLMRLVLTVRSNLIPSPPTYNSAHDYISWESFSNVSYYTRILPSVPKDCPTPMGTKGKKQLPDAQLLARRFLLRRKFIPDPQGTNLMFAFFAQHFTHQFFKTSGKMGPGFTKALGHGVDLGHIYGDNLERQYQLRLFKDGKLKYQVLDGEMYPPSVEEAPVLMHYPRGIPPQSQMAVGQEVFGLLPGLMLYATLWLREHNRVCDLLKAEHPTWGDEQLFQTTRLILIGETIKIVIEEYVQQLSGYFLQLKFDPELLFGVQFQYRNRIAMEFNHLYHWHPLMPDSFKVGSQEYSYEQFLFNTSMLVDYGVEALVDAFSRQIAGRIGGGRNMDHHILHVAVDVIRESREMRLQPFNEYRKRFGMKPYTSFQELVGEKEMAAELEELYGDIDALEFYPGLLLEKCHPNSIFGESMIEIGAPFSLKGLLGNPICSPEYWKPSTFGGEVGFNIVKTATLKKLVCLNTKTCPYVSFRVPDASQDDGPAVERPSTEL
# T2 sequence (Q08499 303-809 limits assumed): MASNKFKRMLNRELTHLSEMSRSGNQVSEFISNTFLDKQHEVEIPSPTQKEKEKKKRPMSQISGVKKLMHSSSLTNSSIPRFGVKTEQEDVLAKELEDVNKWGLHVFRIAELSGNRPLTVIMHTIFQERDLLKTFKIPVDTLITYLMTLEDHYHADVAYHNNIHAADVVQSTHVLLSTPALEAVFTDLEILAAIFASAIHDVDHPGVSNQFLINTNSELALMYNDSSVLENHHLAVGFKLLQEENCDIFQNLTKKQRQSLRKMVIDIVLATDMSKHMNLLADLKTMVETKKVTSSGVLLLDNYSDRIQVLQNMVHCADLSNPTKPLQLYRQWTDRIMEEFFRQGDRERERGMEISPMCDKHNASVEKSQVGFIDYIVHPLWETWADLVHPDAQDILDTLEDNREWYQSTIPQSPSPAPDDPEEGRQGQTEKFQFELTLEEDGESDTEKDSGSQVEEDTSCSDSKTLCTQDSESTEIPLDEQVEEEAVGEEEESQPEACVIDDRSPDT
compound,measurement,setting,value
"CCC(N)Cc1cc(OC)c(C)cc1OC (racemic) [Compound 32, 1-(2,5-dimethoxy-4-methylphenyl)butan-2-amine]",% Response,Cyclooxygenase COX-1,−31%
same,% Response,Phosphodiesterase PDE4D2,−2%
same,% Response,[1],−13%
same,% Response,Cannabinoid CB1,1%
same,% Response,[2],3%
same,% Response,Dopamine D1,7%
same,% Response,Endothelin ETA,−6%
same,% Response,[3],−15%
same,% Response,Glucocorticoid,−5%
same,% Response,Histamine H1,13%
same,% Response,Muscarinic M2,0%
same,% Response,"Opiate δ1 (OP1, DOP)",4%
same,% Response,[4],12%
same,% Response,[5]; listed as (rac)-Ariadne,more than 50%
same,% Response,[5]; listed as Ariadne,72%
same,% Response,[6]; listed as (rac)-Ariadne,more than 50%
same,% Response,[6]; listed as Ariadne,72%
same,% Response,Vasopressin V1A,−5%
same,IC50,hDAT,> 50 µM
same,combined score of DOM-like behavioral features,cats,low combined score
same,serotonergic-like effect,rat smooth muscle,weak serotonergic-like effect
CC[C@@H](N)Cc1cc(OC)c(C)cc1OC [(R)-Ariadne],general locomotion in novel environment,"C57BL/6J mice; 10 mg/kg, s.c. (peak HTR dose)",minor sedative effect
same,general locomotion in novel environment,C57BL/6J mice; 30 mg/kg,marked sedation
same,time in the center of the arena,C57BL/6J mice; open field,trend for spending less time in the center
same,latency to bite the presented food pellets,mice,dose-dependent trend toward reducing latency
same,overall locomotory deficits in the open field,[7],partially rescued
same,symptoms in subjects with Parkinson's disease,patients; 100 mg per day,nearly complete remission of symptoms
same,psychotic symptoms in schizophrenia and bipolar disorder,patients; 50-100 mg per day,rapid remission of psychotic symptoms
same,hallucinogenic effects,"patients; up to and beyond 100 mg per day, including patients with psychosis",lack of hallucinogenic effects
